Results: patent US20250257034A1, “INDOLE DERIVATIVES AS SEROTONERGIC AGENTS USEFUL FOR THE TREATMENT OF DISORDERS RELATED THERETO” (priority 2023, published 2025)
Where two headings read alike, the source gives them in different places.

Legend:
[1] = Pharmacokinetic studies in rat (i.v.); assay type: in vivo; details: dose 1.37 mg/kg (I-71, I-128), 1.33 mg/kg ((S) I-67); for concentration at 0.25 h / concentration at 1 h / concentration at 4 h / AUC(0-t) / half-life: male, Sprague-Dawley, rat, plasma; for concentration at 0.25 h / concentration at 1 h / concentration at 4 h: intravenous; for concentration at 0.25 h / concentration at 1 h / concentration at 4 h / Plasma concentration: rat i.v.; for AUC(0-t) / half-life: iv, rat plasma, i.v.; for half-life: estimated from 2 points only; for concentration at 4 h / Plasma concentration: 4 h
In short: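 Male Sprague-Dawley rats (~225-350 g) received compounds intravenously via tail vein in 5% Tween-80 in saline. Saphenous blood was sampled at 0.25, 1 and 4 h and analysed by LC-MS/MS. t1/2 and AUC0-tlast came from non-compartmental analysis using the linear up/log down trapezoidal rule.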

[2] = Human liver microsomes stability; assay type: in vitro ADME; details: human liver microsomes; for half-life at 2 μM / microsomal CLint at 2 μM: 2 μM compound, 0.5 mg/mL; for microsomal CLint at 2 μM: read-out: CLint (μL/min/mg protein); for CLint scaled at 2 μM: read-out: Scaled-up CLint
In short: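 Parent depletion was measured by LC-MS/MS as peak-area ratio to internal standard. Compounds (2 μM) were incubated at 37° C with liver microsomes of each species and 1 mM NADPH, then sampled to 60 min. Intrinsic clearance in μL/min/mg protein derives from the log-linear slope.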

[3] = Mouse liver microsomes stability; assay type: in vitro ADME; details: mouse liver microsomes; for microsomal CLint at 2 μM / half-life at 2 μM / CLint scaled at 2 μM: male, pooled liver microsomes; for microsomal CLint at 2 μM: mouse, read-out: CLint (μL/min/mg protein); for microsomal CLint at 2 μM / half-life at 2 μM: 2 μM compound, 0.5 mg/mL; for CLint scaled at 2 μM: read-out: Scaled-up CLint
[4] = first individual rat (R01/R04), read-out: Plasma concentration
[5] = mean of 3 rats, read-out: Plasma concentration, Mean ± SD
[6] = second individual rat (R02/R05), read-out: Plasma concentration
[7] = third individual rat (R03/R06), read-out: Plasma concentration
[8] = first individual rat (R01/R04), read-out: AUC0-tlast
[9] = first individual rat (R01/R04), read-out: Apparent t1/2 (converted)
[10] = mean of 3 rats, read-out: AUC0-tlast, Mean ± SD
[11] = mean of 3 rats, read-out: Apparent t1/2, Mean ± SD (converted)
[12] = second individual rat (R02/R05), read-out: AUC0-tlast
[13] = second individual rat (R02/R05), read-out: Apparent t1/2 (converted)
[14] = third individual rat (R03/R06), read-out: AUC0-tlast
[15] = third individual rat (R03/R06), read-out: Apparent t1/2 (converted)

| Compound | concentration at 0.25 h [1, 4] [ng/mL] | concentration at 0.25 h [1, 5] [ng/mL] | concentration at 0.25 h [1, 6] [ng/mL] | concentration at 0.25 h [1, 7] [ng/mL] | concentration at 1 h [1, 4] [ng/mL] | concentration at 1 h [1, 5] [ng/mL] | concentration at 1 h [1, 6] [ng/mL] | concentration at 1 h [1, 7] [ng/mL] | AUC(0-t) [1, 8] [ng·h/mL] | half-life [1, 9] [min] | AUC(0-t) [1, 10] [ng·h/mL] | half-life [1, 11] [min] | AUC(0-t) [1, 12] [ng·h/mL] | half-life [1, 13] [min] | AUC(0-t) [1, 14] [ng·h/mL] | half-life [1, 15] [min] | Predicted hepatic CL [2] [mL/min/kg] | half-life at 2 μM [2] [min] | microsomal CLint at 2 μM [2] [µL/min/mg] | Remaining Percentage (%) ([2]; With Cofactors, 0 min) | further results |
| --- | --- | --- | --- | --- | --- | --- | --- | --- | --- | --- | --- | --- | --- | --- | --- | --- | --- | --- | --- | --- | --- |
| COc1ccc2[nH]cc(CCN(C)CCOC(F)F)c2c1 [Compound I-71, 2-(Difluoromethoxy)-N-(2-(5-methoxy-1H-indol-3-yl)ethyl)-N-methylethan-1-amine] | 292 | 286 ± 6.03 | 280 | 287 | 61.5 | 82.5 ± 19.1 | 87.2 | 98.9 | 253 | 29.6 | 275 ± 21.7 | 31.2 ± 1.69 | 275 | 31.1 | 297 | 32.9 | 17.80 | 13.7 | 101 | 100.00 | concentration at 4 h [1, 4]: 1.27 ng/mL; concentration at 4 h [1, 5]: 1.82 ± 0.582 ng/mL; concentration at 4 h [1, 6]: 1.77 ng/mL; concentration at 4 h [1, 7]: 2.43 ng/mL; Remaining Percentage (%) ([2]; With Cofactors, 30 min): 26.55%; Remaining Percentage (%) ([2]; With Cofactors, 60 min): 4.78%; Remaining Percentage (%) ([2]; Without Cofactors, 0 min): 100.00%; Remaining Percentage (%) ([2]; Without Cofactors, 30 min): 98.77%; Remaining Percentage (%) ([2]; Without Cofactors, 60 min): 104.91%; CLint scaled at 2 μM [2]: 127 mL/min/kg; microsomal CLint at 2 μM [3]: 178 µL/min/mg; half-life at 2 μM [3]: 7.8 min; CLint scaled at 2 μM [3]: 777 mL/min/kg; Predicted hepatic CL [3]: 80.66 mL/min/kg; Remaining Percentage (%) ([3]; With Cofactors, 0 min): 100.00%; Remaining Percentage (%) ([3]; With Cofactors, 30 min): 6.96%; Remaining Percentage (%) ([3]; With Cofactors, 60 min): 0.66%; Remaining Percentage (%) ([3]; Without Cofactors, 0 min): 100.00%; Remaining Percentage (%) ([3]; Without Cofactors, 30 min): 105.81%; Remaining Percentage (%) ([3]; Without Cofactors, 60 min): 109.68% |
| CN(C)CCc1c[nH]c2ccc(OCCOC(F)F)cc12 [Compound I-128, 2-(5-(2-(Difluoromethoxy)ethoxy)-1H-indol-3-yl)-N,N-dimethylethan-1-amine] | 146 | 138 ± 9.07 | 128 | 139 | 19 | 15.2 ± 3.32 | 13.1 | 13.4 | 99 | 15.3 | 92.5 ± 6.63 | 14.1 ± 1.04 | 85.7 | 13.7 | 92.9 | 13.3 | 16.28 | 22.8 | 60.8 | 100.00 | Plasma concentration ([1]; first individual rat (R01/R04)): No Peak; Plasma concentration ([1]; second individual rat (R02/R05)): No Peak; Plasma concentration ([1]; third individual rat (R03/R06)): No Peak; Remaining Percentage (%) ([2]; With Cofactors, 30 min): 41.35%; Remaining Percentage (%) ([2]; With Cofactors, 60 min): 16.15%; Remaining Percentage (%) ([2]; Without Cofactors, 0 min): 100.00%; Remaining Percentage (%) ([2]; Without Cofactors, 30 min): 39.57%; Remaining Percentage (%) ([2]; Without Cofactors, 60 min): 16.12%; CLint scaled at 2 μM [2]: 76.2 mL/min/kg; microsomal CLint at 2 μM [3]: 66.7 µL/min/mg; half-life at 2 μM [3]: 20.8 min; CLint scaled at 2 μM [3]: 292 mL/min/kg; Predicted hepatic CL [3]: 68.78 mL/min/kg; Remaining Percentage (%) ([3]; With Cofactors, 0 min): 100.00%; Remaining Percentage (%) ([3]; With Cofactors, 30 min): 37.09%; Remaining Percentage (%) ([3]; With Cofactors, 60 min): 13.52%; Remaining Percentage (%) ([3]; Without Cofactors, 0 min): 100.00%; Remaining Percentage (%) ([3]; Without Cofactors, 30 min): 89.52%; Remaining Percentage (%) ([3]; Without Cofactors, 60 min): 87.90% |
